Patent publication US20200009253A1, “Compositions and Methods for Treatment of Infections” (Thompson Cooper Laboratories, LLC, priority 2011, published 2020)

Key:
[1] = Solubility of carbamide peroxide in alcohols; assay type: physicochemical; details: solid carbamide peroxide
Protocol: On a weight basis, 18.5% carbamide peroxide, 3.0% glycerol, 73.1% ethyl alcohol, 4.5% luviskol VA 64-polyvinylpyrrolidone vinyl alcohol, and 0.9% Klucel HF, were mixed in a vessel and allowed to thicken. The source of peroxide was solid carbamide peroxide, which is only soluble in isopropyl alcohol to about 10% and in ethanol to about 20%, therefore luviskol VA 64-polyvinylpyrrolidone vinyl alcohol is added to supersaturate the carbamide peroxide, and glycerol is added to retain the carbamide peroxide in solution following ethanol evaporation.

[2] = Sensation (tingling, burning, pain) under the nail after application; assay type: in vivo, human; details: 3% in a solvent system containing a highly volatile solvent; after 15-30 minutes
Description: (§1) Lower levels of hydrogen peroxide in the present invention can be used to treat infected skin or mucous membranes such as canker sores. Depending on the concentration of peroxide, penetration through a nail will also elicit sensations in certain subjects ranging from tingling to burning, which may be mildly painful at higher concentrations. Embodiments of the invention comprising an optional local anesthetic may be appropriate when using such higher concentrations. Effectiveness may be measured by a reduction of, or complete eradication of, the nail fungus over the course of treatment, and further evidenced by healthy nail growth. On a weight basis, 9% hydrogen peroxide, 21% water, 69.5% isopropyl alcohol, and 0.5% Klucel HF (a thickening agent, a hydroxypropylcellulose polymer), were mixed in a vessel and allowed to thicken. (The source of the peroxide was a 30% peroxide solution.) The composition could easily be brushed onto a nail surface, which dried in approximately 1 minute, and the residual polymer could subsequently be removed by washing in water. […] On a weight basis, 6% hydrogen peroxide, 6% water, 87.5% isopropyl alcohol, and 0.5% Klucel HF, were mixed in a vessel and allowed to thicken. […] The resulting composition differed from that of Example 2a in that there was no isopropyl alcohol or any other highly volatile solvent, the quantity thereof being replaced with water. […]

[3] = Whitening effect of the nail after brushing the composition onto the nail surface (shows peroxide penetration); assay type: in vivo, human
Description: as §1

| SMILES | solubility in ethanol [1] | solubility in isopropyl alcohol [1] | sensation after application [2] | visual effect on normal finger nail ([3]; 3% aqueous concentration, thin film via a brush) | visual effect on nail ([3]; same amount and 3% concentration in a solvent system containing a highly volatile solvent) |
| --- | --- | --- | --- | --- | --- |
| NC(N)=O.OO [carbamide peroxide] | about 20% | about 10% | – | – | – |
| OO [hydrogen peroxide, Hydrogen peroxide] | – | – | a slight tingling sensation may sometimes be felt | no visual effect | signs of whiteness |
